Test results taken from US20130197085A1, “AGENT AND METHOD FOR STABILIZING MEMBRANE PROTEIN” (priority 2007, published 2013).

Experiments:
Assay in all cases: Measurement of BSEP mRNA level by real-time quantitative PCR in MDCKII cells
Assay type in all cases: cell-based, human
D482G BSEP mRNA = details: 1 mM 4PBA, 24 hours; not statistically significant (P=0.20)
Description: (§1) MDCKII cells were dispersed on a 6-well plate, resulting in a density of 2.5×10^5 cells/well. After completion of the culture for 24 hours, the confluent cells were infected with recombinant adenoviruses having the cDNAs of wild-type, E297G and D482G BSEPs, and GFP, at 50 MOI. After completion of the infection, the cells were cultured for 24 hours. Thereafter, the cultured cells were treated with 1 mM 4PBA. After completion of the treatment for 24 hours, RNA was isolated using ISOGEN (Wako Pure Chemical Industries, Ltd.) in accordance with an instruction manual included therewith. A DNaseI treatment was carried out at 37° C. for 1 hour, and a reverse transcription reaction was then carried out (see Hayashi et al., Hepatology, 41: 916-924, 2005). The BSEP mRNA level was measured by real-time quantitative PCR according to an ordinary method. The quantitative PCR was carried out using the following primers.
(§2) It is to be noted that the expression of a BSEP gene in each reaction was standardized by the expression of GAPDH.

wild-type BSEP mRNA = details: 1 mM 4PBA, 24 hours; not statistically significant (P=0.10)
Description: as §1, §2

E297G BSEP mRNA = details: 1 mM 4PBA, 24 hours; not statistically significant (P=0.20)
Description: as §1, §2

Measured: expression level of BSEP mRNA standardized by GAPDH mRNA

O=C(O)CCCc1ccccc1 [4PBA, 4-phenylbutyric acid]
slightly increased: all assays above
